This test has as its target T1, human ACC2 (Homo sapiens, UniProt O00763).
T1 construct: made in house; host or cells: insect cells (baculoviral expression system)
The test can be described thus: ACC2 assay, spectrophotometric 384 well assay (NADH-linked, coupled lactate dehydrogenase/pyruvate kinase). Type of test: biochemical. Conditions: ACC2 assay, hACC2 construct lacking 128 N-terminal amino acids, 25° C., 340 nm; read-out: IC50. The gist of the method: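 ADP output tracked via pyruvate kinase/lactate dehydrogenase NADH oxidation, slope at 340 nm over 15 min, 25° C, with 500 μM ATP and 200 μM each acetyl-CoA and NADH. Enzyme: insect-cell-expressed human ACC2, N-terminal 128 residues deleted; pH 7.5 Tris with citrate, KHCO3. IC50 from four-parameter regression versus vehicle and no-acetyl-CoA controls.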
T1 sequence (O00763 129-2458 limits assumed): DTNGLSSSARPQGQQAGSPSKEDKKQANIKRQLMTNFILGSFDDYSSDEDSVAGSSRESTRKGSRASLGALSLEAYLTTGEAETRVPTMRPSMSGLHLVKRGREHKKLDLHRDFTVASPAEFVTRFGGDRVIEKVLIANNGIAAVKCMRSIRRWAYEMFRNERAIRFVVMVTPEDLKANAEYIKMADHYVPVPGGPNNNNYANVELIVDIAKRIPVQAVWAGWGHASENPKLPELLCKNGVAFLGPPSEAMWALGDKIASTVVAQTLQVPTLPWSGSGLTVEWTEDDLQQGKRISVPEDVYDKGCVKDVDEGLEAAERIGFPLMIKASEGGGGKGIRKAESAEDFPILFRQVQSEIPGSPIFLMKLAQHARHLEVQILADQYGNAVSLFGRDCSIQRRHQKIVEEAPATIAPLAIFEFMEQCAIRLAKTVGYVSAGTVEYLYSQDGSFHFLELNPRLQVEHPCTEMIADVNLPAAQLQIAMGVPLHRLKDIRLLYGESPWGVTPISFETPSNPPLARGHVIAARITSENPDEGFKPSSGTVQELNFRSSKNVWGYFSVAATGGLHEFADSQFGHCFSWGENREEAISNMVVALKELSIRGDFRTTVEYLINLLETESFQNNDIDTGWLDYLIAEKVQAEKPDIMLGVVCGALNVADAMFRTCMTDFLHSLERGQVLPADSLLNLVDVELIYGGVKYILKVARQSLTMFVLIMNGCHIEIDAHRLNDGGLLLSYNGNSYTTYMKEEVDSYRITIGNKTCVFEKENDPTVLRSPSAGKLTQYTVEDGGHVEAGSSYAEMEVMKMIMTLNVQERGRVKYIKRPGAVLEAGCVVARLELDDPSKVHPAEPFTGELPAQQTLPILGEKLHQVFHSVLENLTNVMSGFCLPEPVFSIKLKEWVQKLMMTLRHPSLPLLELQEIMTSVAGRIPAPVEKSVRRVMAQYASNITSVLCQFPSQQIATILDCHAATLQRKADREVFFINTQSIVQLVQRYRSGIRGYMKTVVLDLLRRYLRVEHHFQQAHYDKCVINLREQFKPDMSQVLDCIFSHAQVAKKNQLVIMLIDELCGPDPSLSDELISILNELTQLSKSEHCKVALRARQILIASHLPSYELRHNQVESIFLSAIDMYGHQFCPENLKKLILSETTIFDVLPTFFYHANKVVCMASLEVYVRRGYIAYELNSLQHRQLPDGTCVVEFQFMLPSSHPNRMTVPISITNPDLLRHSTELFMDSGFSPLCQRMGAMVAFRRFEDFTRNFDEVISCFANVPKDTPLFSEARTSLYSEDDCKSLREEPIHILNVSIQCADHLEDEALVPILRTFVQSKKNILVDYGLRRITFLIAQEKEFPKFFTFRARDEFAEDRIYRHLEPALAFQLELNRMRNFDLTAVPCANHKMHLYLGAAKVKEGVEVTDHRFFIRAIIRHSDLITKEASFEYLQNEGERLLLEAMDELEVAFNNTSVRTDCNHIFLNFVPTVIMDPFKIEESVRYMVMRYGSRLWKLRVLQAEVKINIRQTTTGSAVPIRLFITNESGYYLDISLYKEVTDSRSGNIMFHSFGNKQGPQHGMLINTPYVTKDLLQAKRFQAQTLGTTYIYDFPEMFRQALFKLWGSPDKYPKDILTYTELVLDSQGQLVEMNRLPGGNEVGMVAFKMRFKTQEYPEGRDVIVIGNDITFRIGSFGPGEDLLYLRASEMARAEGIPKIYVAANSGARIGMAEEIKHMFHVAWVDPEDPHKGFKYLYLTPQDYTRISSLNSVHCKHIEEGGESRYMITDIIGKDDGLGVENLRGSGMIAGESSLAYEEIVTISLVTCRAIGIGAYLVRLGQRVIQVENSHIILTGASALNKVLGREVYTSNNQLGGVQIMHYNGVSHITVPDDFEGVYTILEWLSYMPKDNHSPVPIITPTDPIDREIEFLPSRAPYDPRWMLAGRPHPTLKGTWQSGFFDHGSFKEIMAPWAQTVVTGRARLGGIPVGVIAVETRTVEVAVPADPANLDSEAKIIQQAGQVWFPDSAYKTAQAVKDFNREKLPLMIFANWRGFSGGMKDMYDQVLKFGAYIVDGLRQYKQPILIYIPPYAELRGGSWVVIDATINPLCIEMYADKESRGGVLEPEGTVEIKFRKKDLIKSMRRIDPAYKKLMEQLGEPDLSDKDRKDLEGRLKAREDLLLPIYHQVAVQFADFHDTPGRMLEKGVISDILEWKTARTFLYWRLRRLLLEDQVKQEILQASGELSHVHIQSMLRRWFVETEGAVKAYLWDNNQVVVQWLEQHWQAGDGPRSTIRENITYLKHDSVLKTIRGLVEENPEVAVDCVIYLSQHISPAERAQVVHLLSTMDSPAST
Consider `CCOc1ccc(N2CCC(c3ccc(CC(C)NC(C)=O)cc3)CC2)c(C#N)c1` (stereo not shown) [Example 2.11], for which the IC50 came out at 1.3 µM.
As to `CCNc1nccc(N2CCC(c3ccc([C@H](C)NC(C)=O)cc3)CC2)n1` [Example 11.50], the IC50 came out at 4.2 µM.
Take `CCOc1cccc(-c2nccc(N3CCC(c4ccc([C@H](C)NC(C)=O)cc4)CC3)n2)c1` [Example 22.4]: the IC50 stood at 0.39 µM.
For the compound `CCOc1ccc(N2CCC(c3ccc([C@H](C)NC(=O)/C=N/OC)cc3)CC2)cc1` [Example 6.43], the IC50 came out at 1.1 µM.
As to `CC(=O)N[C@@H](C)c1ccc(C2CCN(c3ncc(-c4cccnc4C)cn3)CC2)cc1` [Example 10.94], the IC50 came out at 2.3 µM.
As to `CC(=O)N[C@@H](C)c1ccc(C2CCN(c3ncc(C(=O)N4Cc5cnn(C)c5C4)cn3)CC2)cc1` [Example 18.28], the IC50 came to 16.9 µM.
Turning to `CC(=O)N[C@@H](C)c1ccc(C2CCN(c3ncc(C(=O)N(C)CC4OCCO4)cn3)CC2)cc1` [Example 18.10], the IC50 came out at 11.5 µM.
Consider `CC(=O)N[C@@H](C)c1ccc(C2CCN(c3ccc(OCC(C)C)cc3)CC2)cc1` [Example 3.7], for which the IC50 came out at 0.74 µM.
For `CC(=O)N[C@@H](C)c1ccc(C2CCN(c3ncc(C(=O)N(C)C4CCS(=O)(=O)C4)cn3)CC2)cc1` (stereo partly shown) [Example 18.69], the IC50 was 20.8 µM.
The value for `COC1CN(C(=O)c2cnc(N3CCC(c4ccc([C@H](C)NC(C)=O)cc4)CC3)nc2)C1` [Example 18.23] was 3.1 µM; that for `CC(=O)N[C@@H](C)c1ccc(C2CCN(c3ccc4c(c3)ncn4C)CC2)cc1` [Example 1.72] was 23.7 µM; that for `CC(=O)N[C@@H](C)c1ccc(C2CCN(c3ncc(-c4ccc(C#N)cc4)cn3)CC2)cc1` [Example 10.10] was 0.07 µM.
For `CNc1nc(N2CCC(c3ccc([C@H](C)NC(C)=O)cc3)CC2)ncc1-c1ccccc1` [Example 21.3, (S)—N-(1-{4-[1-(4-Methylamino-5-phenyl-pyrimidin-2-yl)-piperidin-4-yl]-phenyl}-ethyl)-acetamide], the IC50 is 0.32 µM.
`CCCNc1nccc(N2CCC(c3ccc([C@H](C)NC(C)=O)cc3)CC2)n1` [Example 11.41]: the IC50 turned out to be 3.1 µM.
Take `CC(=O)N[C@@H](C)c1ccc(C2CCN(c3ccc4c(c3)OCC(C)(C)CO4)CC2)cc1` [Example 1.61]: the IC50 came out at 0.21 µM.
As to `CCOc1ccc(N2CCC(c3ccc([C@H](C)NC(=O)N4CCC4)cc3)CC2)cc1` [Example 14.66], the IC50 was 2.2 µM.
For `CCOc1ccc(-c2cc(N3CCC(c4ccc([C@H](C)NC(C)=O)cc4)CC3)ncn2)cc1` [Example 22.9], the IC50 turned out to be 3.1 µM.
Take `CC(=O)N[C@@H](C)c1ccc(C2CCN(c3ncnc4ccsc34)CC2)cc1` [Example 4.24]: the IC50 is 2.1 µM.
Consider `CC(=O)N[C@@H](C)c1ccc(C2CCN(c3ccnc(OC4Cc5ccccc5C4)c3)CC2)cc1` [Example 19.30], for which the IC50 is 0.54 µM.
In the case of `CCOc1cc(N2CCC(c3ccc([C@H](C)NC(C)=O)cc3)CC2)ncn1` [Example 11.36], the IC50 worked out at 0.58 µM.
With `C[C@H](NC(=O)C1CC1)c1ccc(C2CCN(c3nc(N(C)CC4CC4)ncc3C#N)CC2)cc1` [Example 11.126], the IC50 was found to be 0.81 µM.
The value for `CC(=O)N[C@@H](C)c1ccc(C2CCN(c3ccnc(NCC4CCC4)n3)CC2)cc1` [Example 11.94] was 1.7 µM; that for `CC(=O)N[C@@H](C)c1ccc(C2CCN(c3ncc(-c4ccc(C#N)s4)cc3F)CC2)cc1` [Example 10.309] was 0.08 µM; that for `CC(=O)N[C@@H](C)c1ccc(C2CCN(c3cc(C(F)(F)F)ccn3)CC2)cc1` [Example 4.18] was 0.32 µM.
On to `CC(=O)N[C@@H](C)c1ccc(C2CCN(c3ccc(OCC4CC4)c(C#N)c3)CC2)cc1` [Example 9.40], for which the IC50 stood at 2.9 µM.
With `CCOC(=O)c1cnnc(N2CCC(c3ccc([C@H](C)NC(C)=O)cc3)CC2)c1` [Example 5.55] the figure was 7.6 µM.
For `CCCOc1ccc(N2CCC(c3ccc([C@H](C)NC(=O)C4CC4)cc3)CC2)c(OC)c1` [Example 1.116], the IC50 stood at 0.77 µM.
Turning to `CCCOc1ccc(N2CCC(c3ccc([C@H](C)NC(=O)N(C)C)cc3)CC2)cc1` [Example 1.8], the IC50 turned out to be 0.12 µM.
For the compound `CCC(=O)N[C@@H](C)c1ccc(C2CCN(c3ccnc(Oc4ccccc4)c3)CC2)cc1` [Example 1.153], the IC50 was 0.52 µM.
With `CC(=O)N[C@@H](C)c1ccc(C2CCN(c3ccc(NCC4CC4)cc3)CC2)cc1` [Example 24.4], the IC50 came to 1.3 µM.
Take `CCOCCOc1ccc(N2CCC(c3ccc([C@H](C)NC(C)=O)cc3)CC2)cc1` [Example 8.1]: the IC50 stood at 0.44 µM.
As to `CC(=O)N[C@@H](C)c1ccc(C2CCN(c3ncc(C(=O)Nc4ccccn4)cn3)CC2)cc1` [Example 18.15], the IC50 was found to be 7.2 µM.
With `CC(=O)N[C@@H](C)c1ccc(C2CCN(c3ncc(C4CC4)cc3F)CC2)cc1` [Example 10.305] the figure was 0.46 µM.
Take `CC(=O)N[C@@H](C)c1ccc(C2CCN(c3cc(Oc4ccccc4F)ncn3)CC2)cc1` [Example 11.25]: the IC50 is 0.24 µM.
The value for `CC(=O)N[C@@H](C)c1ccc(C2CCN(c3ncc(-c4ccc5c(c4)OCCCO5)cn3)CC2)cc1` [Example 10.26] was 0.41 µM.
Consider `CCOc1ccc(N2CCC(c3ccc([C@H](C)NC(=O)C4CC4)cc3)CC2)c(OCC)c1` [Example 1.121], for which the IC50 worked out at 8.1 µM.
Consider `CCCCOc1ccc(N2CCC(c3ccc([C@H](C)NC(C)=O)cc3)CC2)cc1C#N` [Example 8.41], for which the IC50 was 4.2 µM.
With `CCOc1ccc(N2CCC(c3ccc([C@H](C)NC(C)=S)cc3)CC2)c(F)c1` [Example 38.2] the figure was 0.29 µM; with `CC(=O)N[C@@H](C)c1ccc(C2CCN(c3ccc(O)cc3F)CC2)cc1` [Example 1.65], 20 µM.
Turning to `COc1cc(N2CCC(c3ccc([C@H](C)NC(C)=O)cc3)CC2)ccn1` [Example 3.2], the half-maximal inhibitory concentration (IC50) came out at 0.33 µM.
`CC(=O)N[C@@H](C)c1ccc(C2CCN(c3ccnc(OCc4ccccc4F)c3)CC2)cc1` [Example 19.31]: the IC50 was determined as 0.75 µM.
With `COCCOc1nccc(N2CCC(c3ccc([C@H](C)NC(C)=O)cc3)CC2)n1` [Example 11.30] the figure was 8.4 µM; with `CC(=O)N[C@@H](C)c1ccc(C2CCN(c3ncccc3C#N)CC2)cc1` [Example 4.1, (S)—N-(1-{4-[1-(3-Cyanopyridin-2-yl)piperidin-4-yl]phenyl}ethyl)acetamide], 2.5 µM.
For `CC(=O)N[C@@H](C)c1ccc(C2CCN(c3ccnc(O[C@H]4CCOC4)c3)CC2)cc1` [Example 19.16], the half-inhibitory concentration (IC50) came out at 0.27 µM.
Take `CCOc1ccc(N2CCC(c3ccc(C(CC)NC(C)=O)cc3)CC2)c(F)c1` (stereo not shown) [Example 1.207]: the IC50 was found to be 5.1 µM.
With `CCOc1ccc(N2CCC(c3ccc([C@H](C)NC(C)=O)cc3)CC2)c(C#N)c1` [Example 13.3] the figure was 0.17 µM; with `CC(=O)N[C@@H](C)c1ccc(C2CCN(c3ncc(C(=O)N4CCC4)cn3)CC2)cc1` [Example 18.76], 4 µM; with `CC(=O)N[C@@H](C)c1ccc(C2CCN(c3cccc(OCC4CCCCO4)c3)CC2)cc1` (stereo partly shown) [Example 9.15], 0.37 µM.
For `COc1cc(N2CCC(c3ccc([C@H](C)NC(C)=O)cc3)CC2)ccc1OCC1CC1` [Example 9.44], the IC50 was found to be 0.48 µM.

(Values after patent US9006450B2 (Boehringer Ingelheim International GmbH, priority 2010, dated 2015).)
